Source: US8642544B2, “N-terminus conformationally constrained GLP-1 receptor agonist compounds” (Amylin Pharmaceuticals, LLC, priority 2009, dated 2014)
pEC50: −log10 of the molar value. Like-named read-outs stand apart in the source and are kept apart here.

Molecular target: T1, GLP-1 receptor (Rattus norvegicus, UniProt P32301)
T1 construct: 96-well assay plate containing RIN m5f cell membranes in an ATP/GTP mixture; endogenous in cells; host or cells: RIN m5f cell membranes
T1 sequence (P32301 22-463): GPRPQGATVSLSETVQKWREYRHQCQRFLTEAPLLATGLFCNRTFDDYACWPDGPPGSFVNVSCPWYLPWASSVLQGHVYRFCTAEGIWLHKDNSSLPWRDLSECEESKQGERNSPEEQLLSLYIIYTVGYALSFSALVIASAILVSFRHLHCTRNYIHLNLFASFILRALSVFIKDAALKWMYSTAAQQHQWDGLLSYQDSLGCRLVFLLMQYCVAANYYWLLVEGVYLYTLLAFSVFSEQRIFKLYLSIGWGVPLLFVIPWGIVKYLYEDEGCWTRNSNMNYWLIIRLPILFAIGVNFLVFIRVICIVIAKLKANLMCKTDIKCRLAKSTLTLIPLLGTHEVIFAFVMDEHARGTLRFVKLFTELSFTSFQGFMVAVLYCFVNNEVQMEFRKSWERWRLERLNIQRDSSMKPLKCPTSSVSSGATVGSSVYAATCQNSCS
Assay: in vitro functional assay at the GLP-1 receptor (cyclase, cAMP production in RIN m5f cell membranes)
Type: biochemical
Conditions: for EC50: Cyclase GLP-1 Receptor EC50 (nM)
Protocol: The compounds shown in Table 1 below were analyzed in an in vitro functional assay at the GLP-1 receptor. The assay was conducted as follows: Membrane fractions were prepared from confluent cultures of RIN m5f cells. Compounds were serially diluted with an assay buffer, and then added to a 96-well assay plate containing RIN m5f cell membranes in an ATP/GTP mixture. Cyclase activities were determined by measuring the production of cAMP induced through GLP-1 receptor activation. Quantification of cAMP production was achieved through a competitive chemiluminescence assay with a biotinylated-cAMP probe using Perkin Elmer Fusion™-Alpha Microplate Analyzer (AlphaScreen™ technology). The compound EC50 values were obtained through fitting the concentration-response curves to a four-parameter logistic equation within GraphPad PRISM® software.

[1] = Table 1, RIN m5f cell membranes, cAMP production (AlphaScreen)

SMILES | EC50 [1] [nM] | other results
CC[C@H](C)[C@H](NC(=O)[C@H](Cc1ccccc1)NC(=O)[C@H](CC(C)C)NC(=O)[C@H](CCCNC(=N)N)NC(=O)[C@@H](NC(=O)[C@H](C)NC(=O)[C@H](CCC(=O)O)NC(=O)[C@H](CCC(=O)O)NC(=O)[C@H](CCC(=O)O)NC(=O)[C@H](CC(C)C)NC(=O)[C@H](CCC(N)=O)NC(=O)[C@H](CCCCN)NC(=O)[C@H](CO)NC(=O)[C@H](CC(C)C)NC(=O)[C@H](CC(=O)O)NC(=O)[C@H](CO)NC(=O)[C@@H](NC(=O)[C@H](Cc1ccccc1)NC(=O)[C@@H](NC(=O)CNC(=O)[C@@H]1CSCN1C(=O)CNC(=O)[C@@H](N)Cc1c[nH]cn1)[C@@H](C)O)[C@@H](C)O)C(C)C)C(=O)N[C@@H](CCC(=O)O)C(=O)N[C@@H](Cc1ccccc1)C(=O)N[C@@H](CC(C)C)C(=O)N[C@@H](CCCCN)C(=O)N[C@@H](CC(N)=O)C(N)=O [5C] | – | pEC50 (Table 1, RIN m5f cell membranes, cAMP production (AlphaScreen), read-out: Cyclase GLP-1 Receptor EC50): 8.98
CC[C@H](C)[C@H](NC(=O)[C@H](Cc1ccccc1)NC(=O)[C@H](CC(C)C)NC(=O)[C@H](CCCNC(=N)N)NC(=O)[C@@H](NC(=O)[C@H](C)NC(=O)[C@H](CCC(=O)O)NC(=O)[C@H](CCC(=O)O)NC(=O)[C@H](CCC(=O)O)NC(=O)[C@H](CC(C)C)NC(=O)[C@H](CCC(N)=O)NC(=O)[C@H](CCCCN)NC(=O)[C@H](CO)NC(=O)[C@H](CC(C)C)NC(=O)[C@H](CC(=O)O)NC(=O)[C@H](CO)NC(=O)[C@@H](NC(=O)[C@H](Cc1ccccc1)NC(=O)[C@@H](NC(=O)CNC(=O)[C@@H]1CCCN1C(=O)[C@@H](NC(=O)[C@@H](N)Cc1c[nH]cn1)C(C)C)[C@@H](C)O)[C@@H](C)O)C(C)C)C(=O)N[C@@H](CCC(=O)O)C(=O)N[C@@H](Cc1ccccc1)C(=O)N[C@@H](CC(C)C)C(=O)N[C@@H](CCCCN)C(=O)N[C@@H](CC(N)=O)C(N)=O [6C] | 152 | –
CC[C@H](C)[C@H](NC(=O)[C@H](Cc1ccccc1)NC(=O)[C@H](CC(C)C)NC(=O)[C@H](CCCNC(=N)N)NC(=O)[C@@H](NC(=O)[C@H](C)NC(=O)[C@H](CCC(=O)O)NC(=O)[C@H](CCC(=O)O)NC(=O)[C@H](CCC(=O)O)NC(=O)[C@H](CC(C)C)NC(=O)[C@H](CCC(N)=O)NC(=O)[C@H](CCCCN)NC(=O)[C@H](CO)NC(=O)[C@H](CC(C)C)NC(=O)[C@H](CC(=O)O)NC(=O)[C@H](CO)NC(=O)[C@@H](NC(=O)[C@H](Cc1ccccc1)NC(=O)[C@@H](NC(=O)[C@@H]1CSSC[C@@H](NC(=O)[C@@H](N)Cc2c[nH]cn2)C(=O)N2CCC[C@H]2C(=O)N1)[C@@H](C)O)[C@@H](C)O)C(C)C)C(=O)N[C@@H](CCC(=O)O)C(=O)N[C@@H](Cc1ccccc1)C(=O)N[C@@H](CC(C)C)C(=O)N[C@@H](CCCCN)C(=O)N[C@@H](CC(N)=O)C(N)=O [8B] | 1.26 | –
CC[C@H](C)[C@H](NC(=O)[C@H](Cc1ccccc1)NC(=O)[C@H](CC(C)C)NC(=O)[C@H](CCCNC(=N)N)NC(=O)[C@@H](NC(=O)[C@H](C)NC(=O)[C@H](CCC(=O)O)NC(=O)[C@H](CCC(=O)O)NC(=O)[C@H](CCC(=O)O)NC(=O)[C@H](CC(C)C)NC(=O)[C@H](CCC(N)=O)NC(=O)[C@H](CCCCN)NC(=O)[C@H](CO)NC(=O)[C@H](CC(C)C)NC(=O)[C@H](CC(=O)O)NC(=O)[C@H](CO)NC(=O)[C@@H](NC(=O)[C@H](Cc1ccccc1)NC(=O)[C@@H](NC(=O)[C@H]1CSSC[C@@H](NC(=O)[C@@H](N)Cc2c[nH]cn2)C(=O)N2CCC[C@H]2C(=O)N1)[C@@H](C)O)[C@@H](C)O)C(C)C)C(=O)N[C@@H](CCC(=O)O)C(=O)N[C@@H](Cc1ccccc1)C(=O)N[C@@H](CC(C)C)C(=O)N[C@@H](CCCCN)C(=O)N[C@@H](CC(N)=O)C(N)=O [8C] | 969 | –
CC[C@H](C)[C@H](NC(=O)[C@H](Cc1ccccc1)NC(=O)[C@H](CC(C)C)NC(=O)[C@H](CCCNC(=N)N)NC(=O)[C@@H](NC(=O)[C@H](C)NC(=O)[C@H](CCC(=O)O)NC(=O)[C@H](CCC(=O)O)NC(=O)[C@H](CCC(=O)O)NC(=O)[C@H](CC(C)C)NC(=O)[C@H](CCC(N)=O)NC(=O)[C@H](CCCCN)NC(=O)[C@H](CO)NC(=O)[C@H](CC(C)C)NC(=O)[C@H](CC(=O)O)NC(=O)[C@H](CO)NC(=O)[C@@H](NC(=O)[C@H](Cc1ccccc1)NC(=O)[C@@H](NC(=O)[C@H]1CSSC[C@H](NC(=O)[C@@H](N)Cc2c[nH]cn2)C(=O)N2CCC[C@H]2C(=O)N1)[C@@H](C)O)[C@@H](C)O)C(C)C)C(=O)N[C@@H](CCC(=O)O)C(=O)N[C@@H](Cc1ccccc1)C(=O)N[C@@H](CC(C)C)C(=O)N[C@@H](CCCCN)C(=O)N[C@@H](CC(N)=O)C(N)=O [8D] | 106 | –
CC[C@H](C)[C@H](NC(=O)[C@H](Cc1ccccc1)NC(=O)[C@H](CC(C)C)NC(=O)[C@H](CCCNC(=N)N)NC(=O)[C@@H](NC(=O)[C@H](C)NC(=O)[C@H](CCC(=O)O)NC(=O)[C@H](CCC(=O)O)NC(=O)[C@H](CCC(=O)O)NC(=O)[C@H](CC(C)C)NC(=O)[C@H](CCC(N)=O)NC(=O)[C@H](CCCCN)NC(=O)[C@H](CO)NC(=O)[C@H](CC(C)C)NC(=O)[C@H](CC(=O)O)NC(=O)[C@H](CO)NC(=O)[C@@H](NC(=O)[C@H](Cc1ccccc1)NC(=O)[C@@H](NC(=O)CN1CC[C@@H](C(=O)O)[C@H](NC(=O)[C@H](C)NC(=O)[C@@H](N)Cc2c[nH]cn2)C1=O)[C@@H](C)O)[C@@H](C)O)C(C)C)C(=O)N[C@@H](CCC(=O)O)C(=O)N[C@@H](Cc1c[nH]c2ccccc12)C(=O)N[C@@H](CC(C)C)C(=O)N[C@@H](CCCCN)C(=O)N[C@@H](CCC(N)=O)C(=O)NCC(=O)NCC(=O)N1CCC[C@H]1C(=O)N[C@@H](CO)C(=O)N[C@@H](CCCCN)C(=O)N[C@@H](CCC(=O)O)C(=O)N[C@H](C(=O)N[C@H](C(=O)N[C@@H](CO)C(=O)O)[C@@H](C)CC)[C@@H](C)CC [16B] | 0.18 | –
CC[C@H](C)[C@H](NC(=O)[C@H](Cc1ccccc1)NC(=O)[C@H](CC(C)C)NC(=O)[C@H](CCCNC(=N)N)NC(=O)[C@@H](NC(=O)[C@H](C)NC(=O)[C@H](CCC(=O)O)NC(=O)[C@H](CCC(=O)O)NC(=O)[C@H](CCC(=O)O)NC(=O)[C@H](CCSC)NC(=O)[C@H](CCC(N)=O)NC(=O)[C@H](CCCCN)NC(=O)[C@H](CO)NC(=O)[C@H](CC(C)C)NC(=O)[C@H](CC(=O)O)NC(=O)[C@H](CO)NC(=O)[C@@H](NC(=O)[C@H](Cc1ccccc1)NC(=O)[C@@H](NC(=O)CNC(=O)[C@@H]1CCCN1C(=O)[C@H](C)NC(=O)CCc1c[nH]cn1)[C@@H](C)O)[C@@H](C)O)C(C)C)C(=O)N[C@@H](CCC(=O)O)C(=O)N[C@@H](Cc1c[nH]c2ccccc12)C(=O)N[C@@H](CC(C)C)C(=O)N[C@@H](CCCCN)C(=O)N[C@@H](CC(N)=O)C(=O)N[C@@H](CCCCNC(=O)CCCC[C@@H]1SC[C@@H]2NC(=O)N[C@@H]21)C(N)=O [Compound 24D] | – | EC50 (Table 3, methods of Example 16): 0.77 nM
CC[C@H](C)[C@H](NC(=O)[C@H](Cc1ccccc1)NC(=O)[C@H](CC(C)C)NC(=O)[C@H](CCCNC(=N)N)NC(=O)[C@@H](NC(=O)[C@H](C)NC(=O)[C@H](CCC(=O)O)NC(=O)[C@H](CCC(=O)O)NC(=O)[C@H](CCC(=O)O)NC(=O)[C@H](CC(C)C)NC(=O)[C@H](CCC(N)=O)NC(=O)[C@H](CCCCN)NC(=O)[C@H](CO)NC(=O)[C@H](CC(C)C)NC(=O)[C@H](CC(=O)O)NC(=O)[C@H](CO)NC(=O)[C@@H](NC(=O)[C@H](Cc1ccccc1)NC(=O)[C@@H](NC(=O)CNC(=O)[C@@H]1CCCN1C(=O)[C@H]1CSC([C@@H](N)Cc2c[nH]cn2)N1)[C@@H](C)O)[C@@H](C)O)C(C)C)C(=O)N[C@@H](CCC(=O)O)C(=O)N[C@@H](Cc1ccccc1)C(=O)N[C@@H](CC(C)C)C(=O)N[C@@H](CCCCN)C(=O)N[C@@H](CC(N)=O)C(N)=O (some centres unmarked) [Compound in Figure 17B] | 668 | –
